# Reference: patent US12382888B2, “Compositions and methods for modulating immunity in plants” (Boyce Thompson Institute for Plant Research, Inc., priority 2013, dated 2025)
# Entries after “also recorded” stand apart in the source; their conditions may differ.
# Tested on: Turnip Crinkle Virus (TCV)
# Experiment: Resistance of Arabidopsis to Turnip Crinkle Virus (coat protein immunoblot, symptoms)
# Assay type: in vivo
# Conditions: root pretreatment 1 μM
smiles,measurement,setting,value
"CC1O[C@@H](O[C@@H](C)CCCCCCCCC(=O)O)C(O)C[C@H]1O (stereo in doubt) [ascr #18, (10R)-(3′R,5′R-dihydroxy-6′S-methyl-(2H)-tetrahydropyran-2-yloxy)-undecanoic Acid]",resistance to virulent TCV,,dramatically enhanced resistance; also recorded: enhanced basal resistance
same,"disease symptoms (chlorosis, lesions, suppression of inflorescent development)",6 dpi,greatly reduced
same,systemic spread of the virus,distal leaves,largely abolished
same,viral replication (amount of viral coat protein),"inoculated and distal leaves, immune blot",greatly reduced
